{"source": "patent US5795857A", "about": "“Mimetic insect pyrokinin analogs for insect control” (The United States of America as represented by the …, priority 1996, dated 1998)", "key": {"[1]": {"test_system": "isolated cockroach (Leucophaea maderae) hindgut", "test": "Cockroach myotropic bioassay (isolated hindgut)", "assay_type": "cell-based", "procedure": "Leucophaea maderae cockroaches were taken from stock colonies maintained at 27° C. and fed dry dog food ad lib. Cockroach hindguts, free of central nervous system (CNS) tissue, were dissected, immersed in saline, and prepared for recording of myogenic activity as previously described (Holman et al., 1991, ibid). Threshold concentrations were determined for each analogue by adding a known quantity of peptide (dissolved in 0.5 ml bioassay saline) to the bioassay chamber containing the hindgut and observing the response on a Gould 2200S oscillograph recorder. The quantity of the peptide analogues was calculated from the values obtained for Phe and/or Leu in the amino acid analysis. The threshold concentration was defined as the minimum concentration of peptide in the chamber required to evoke an observable change in the frequency (50%) or amplitude of contractions (5%) within 1 min and sustained for 3 min. Threshold concentrations were obtained from five cockroach hindguts on 5 consecutive days for each peptide. Quantitative data for dose-response plots were obtained as previously described (Holman et al., 1991, ibid)."}, "[2]": {"test_system": "virgin females of Heliothis virescens", "test": "Pheromonotropic assay (injection)", "assay_type": "in vivo", "procedure": "Pupae of H. virescens were obtained from a laboratory colony maintained at the Insect Attractants, Behavior and Basic Biology Research Laboratory, USDA-ARS, in Gainesville, Fla. The pupae were separated by sex and the males were discarded. After eclosion, the females were held in 4-1 cages and provided with cotton wicks soaked with 5% sucrose solution. The insects were held at 25°±2° C, 65±3% relative humidity with a 12:12 (L:D) photoperiod. Virgin females were used for bioassays 2 and 3 days after eclosion during the 7th-8th hour of the photophase when endogenous levels of pheromone are very low (Abernathy, 1995, Regulation of sex pheromone production and oviposition in virgin females of noctuid moths, doctoral dissertation, University of Florida, Gainesville, Fla., pp. 1-107).\nPheromone biosynthesis neuropeptide from H. zea (Hez--PBAN) and the carboranyl pseudopeptide Cbe--Thr--Pro--Arg--Leu--NH2 were dissolved in physiological saline (Christensen et al., 1991, Proc. Natl. Acad. Sci. USA, 88:4971-4975). Female H. virescens insects were injected through the side of the third abdominal segment using a 26-ga needle with 20 μl of the above solutions. Each female received a dose of 0.01, 0.03, 0.1, 0.3, 1, 3, 10, 30, 100 or 300 pmol. After 1 h of incubation, the terminal abdominal segments, which contain the pheromone gland, were excised and placed in 10 μl of hexane containing 10 ng each of internal standards (octadecane and nonadecane) used for quantitation and calculation of relative retention indices. The pheromone gland extracts were analyzed for the amount of (Z)-11-hexadecenal (Z11-16:AL), the major sex pheromone component of H. virescens (Klun et al., 1980, J. Chem. Ecol., 6:165-175) by capillary gas chromatography. Hewlett-Packard 5890 gas chromatographs were equipped with splitless injectors, flame ionization detectors, and 30 m×0.25 mm (i.d.) fused silica \"SPB 10\" (polar) or \"SPB1\" (apolar) columns (Supelco). Conditions of chromatography were as follows: initial temperature=60° C.; injector operated in the splitless mode for 0.5 min; oven temperature increased by 30° C./min after 1 min; final temperature=190° C. (\"SPB10\") or 200° C. (\"SPB1\"); helium carrier gas at a linear flow velocity of 18 cm/s. A Nelson Analytical 3000° acquisition system (Cupertino, Calif.) was used to collect and analyze the data (Teal et al., 1989, Proc. Natl. Acad. Sci. USA, 86:2488-2492).\nAfter the dose response of Hez--PBAN was completed, the […] dose was chosen to use for comparison with the carboranyl pseudopeptide assayed here. Insects were also injected with saline alone as a control. The pseudopeptide was prepared by dilution with saline as described above. Based on the dose-response for the activity of Hez--PBAN, […] were chosen to assess the pheromonotropic activity of the carboranyl pseudopeptide. Females were injected with 20 μl containing 0.01, 0.03, 0.1, 0.3, 1, 3, 10, 30, 100, or 300 pmol. Each bioassay consisted of one dose of several different peptides along with saline and Hez--PBAN controls. The amount of pheromone present in extracts of the pheromone glands of females from each group was compared with that produced by females injected with 5 pmol of Hez--PBAN during that particular bioassay. After all the bioassays were completed, the amount of pheromone produced by each insect was calculated as a percentage of the amount of pheromone produced by females treated with Hez--PBAN. Data were analyzed using one-way ANOVA and t-test with \"STATVIEW\" software. Variability was reported as SEM.\nThe pheromonotropic activity of Hez--PBAN, Lom--MT--II and [6--Pha--Ala^0 ]Lom--MT--II was first determined by a series of injection bioassays. Peptides were dissolved in physiological saline (Christensen et al., ibid) and diluted to concentrations of 0.003, 0.01, 0.03, 0.1, 0.3, 1.0, 3.0 and 10.0 pmol/μl. Insects were injected through the side of the 3rd abdominal segment using a 26 ga. needle with 20 μl of the above solutions. […]"}, "fleshfly larvae": {"test_system": "fleshfly larvae", "test": "Acceleration of pupariation after injection into fleshfly larvae", "assay_type": "in vivo, Sarcophaga bullata", "settings": "injected into fleshfly larvae"}, "[3]": {"settings": "isolated hindgut, FIG. 2, listed as carboranyl pseudotetrapeptide"}}, "note": "“Also recorded” adds a separate entry of the source."}
{"substance": "Cbe--Thr--Pro--Arg--Leu--NH2", "values": [{"measurement": "potency relative to the 8-mer LPK", "setting": "[1]; hindgut threshold concentration", "result": 10, "unit": "X"}, {"measurement": "reversibility of myostimulatory response by saline rinse", "setting": "[1]; isolated hindgut, FIG. 2, listed as carboranyl analog", "result": "could not be reversed even following repeated saline rinses; also recorded: cannot be reversed even following repeated saline rinses"}, {"measurement": "period over which myostimulatory activity subsides after rinse", "setting": "[1]; [3]", "result": "about 20 minutes"}, {"measurement": "reversibility of myostimulatory response by saline rinse", "setting": "[1]; [3]", "result": "cannot be reversed by one or more saline rinses"}, {"measurement": "Threshold Concentration, myostimulation of the isolated cockroach hindgut", "setting": "[1]; minimum concentration evoking observable change in frequency (50%) or amplitude (5%) of contractions", "result": 70, "unit": "pM"}, {"measurement": "potency relative to 33-membered HezPBAN, injection", "setting": "[2]; H. virescens", "result": 10, "unit": "fold"}, {"measurement": "ED50, pheromone production following injection", "setting": "[2]; H. virescens females, FIG. 3", "result": 0.1, "unit": "pmoles/female"}, {"measurement": "ED50, pheromone production via injection", "setting": "[2]; H. virescens females, glands extracted 60 min after injection", "result": 0.1, "unit": "pmol"}, {"measurement": "dose eliciting a 100% response, injection", "setting": "[2]; H. virescens, FIG. 3", "result": 2.5, "unit": "pmoles/female"}, {"measurement": "potency relative to 33-membered HezPBAN, injection", "setting": "[2]; H. virescens, listed as carboranyl analog", "result": "equipotent"}, {"measurement": "Maximal Response via injection (dose)", "setting": "[2]; maximal pheromone production relative to 5 pmoles PBAN via injection", "result": 2.5, "unit": "pmol"}, {"measurement": "concentration accelerating pupariation", "setting": "fleshfly larvae", "result": "≤ 0.25", "unit": "picomoles/insect"}]}
